Here are results for 11 molecules from patent US4430324A (priority 1982, dated 1984).

The subject of one series is cariogenic bacteria. Put plainly: inhibition of bacterial growth, overall findings. The following applies: all bacterial isolates tested.
A further series deals with L. casei. The settings on record: for IC50: read-out: ID/50; for ID/50 (recalculated as ppm F): 1440 min.
A further series deals with S. sanguis 10557. The settings on record: for IC50: read-out: ID/50; for ID/50 (recalculated as ppm F): 1440 min.
The next series has as its system S. salivarius SS4. The following applies: for IC50: read-out: ID/50; for ID/50 (recalculated as ppm F): 1440 min.
The next series deals with S. salivarius H-257. The settings on record: for IC50: read-out: ID/50; for ID/50 (recalculated as ppm F): 1440 min.
The test system of another series is S. mutans 6715. The following applies: for IC50: read-out: ID/50; for ID/50 (recalculated as ppm F): 1440 min.
The next series concerns S. mutans OMZ-176. The following applies: for IC50: read-out: ID/50; for ID/50 (recalculated as ppm F): 1440 min.
The next series deals with S. sanguis 10556. The settings on record: for IC50: read-out: ID/50; for ID/50 (recalculated as ppm F): 1440 min.
A short description of the next series: pH of solution. It counts as physicochemical.
The test system of the next series is artificial plaque. Put plainly: in vitro antiplaque study. It counts as cell-based, clinical plaque samples. The settings on record: for Percentage Inhibition of Growth of Artificial Plaque: means ±95% confidence limits. Here is the method: The in vitro plaque was initiated on uniformly sized aluminum plummets which were previously coated for 20 min. with wax stimulated whole saliva. These coated plummets were then placed in a Trypticase (B.B.L.) 1% sucrose growth medium inoculated with clinical plaque samples. After 5 hours of incubation at 37° C. the plummets were immersed in a solution containing equal volumes of whole saliva and the test compound for one minute and subsequently suspended overnight (37° C.) in a 20% solution of saliva supernatant. On the second day the plummets were retreated with the test solution (1 min.) and reincubated in inoculated Trypticase-sucrose growth medium for 5 hours. After this period of time the plaques were rinsed in distilled water for 5 minutes. The plaques were then removed from the plummets by sonication in 10 ml distilled water and quantitated in a Unicam SP500 spectrophotometer at 570 nm.
Five replicas per test compound were examined.

Where two headings read alike, the source gives them in different places. Some results are limits rather than exact numbers.

On to `[Ca]` [Ca], for which the “inhibition of bacterial growth” value in the series on cariogenic bacteria was “little or no effect”.
In the case of `[Cl-].[Cl-].[Co+2]` [CoCl2], the IC50 in the series with L. casei was more than 12000 µM; with S. sanguis 10557, 3840 µM; in the series with S. salivarius SS4, 5960 µM; in the series with S. salivarius H-257, 550 µM; with S. mutans 6715 it was 7720 µM; with S. mutans OMZ-176 it was 10600 µM. The IC50 in the series with S. sanguis 10556 was 2890 µM.
`[Fe]` [Fe]: in the series on cariogenic bacteria, the “inhibition of bacterial growth” value is recorded as “little or no effect”.
On the same count and under the same terms, the entry for `[Mg]` [Mg] is “little or no effect”; for `[Mn]` [Mn] it is “little or no effect”.
Regarding `[Cl-].[Na+]` [Na], the “inhibition of bacterial growth” value with cariogenic bacteria is on record as “little or no effect”.
Take `N.N.[F-].[F-].[F-].[F-].[F-].[F-].[Sn]` [Sn(NH4)2 F6, stannic ammonium fluoride]: the “ID/50 (recalculated as ppm F)” value with L. casei (Table III, L. casei) is reported as 288 ppm F; in the series on S. sanguis 10557 (Table III, S. sanguis 10557), 45 ppm F; in the series on S. salivarius SS4 (Table III, S. salivarius SS4), 188 ppm F; in the series with S. salivarius H-257 (Table III, S. salivarius H-257) it was 46 ppm F; in the series with S. mutans 6715 (Table III, S. mutans 6715), 137 ppm F; with S. mutans OMZ-176 (Table III, S. mutans OMZ-176) it was 163 ppm F. Moreover, the “ID/50 (recalculated as ppm F)” value in the series with S. sanguis 10556 (Table III, S. sanguis 10556) is 25 ppm F. In addition, the IC50 with L. casei (Table II, fluoride salts, L. casei, means of triplicate experiments) was 2530 µM; in the series with S. sanguis 10557 (Table II, fluoride salts, S. sanguis 10557, means of triplicate experiments), 390 µM; in the series on S. salivarius SS4 (Table II, fluoride salts, S. salivarius SS4, means of triplicate experiments), 1650 µM; in the series with S. salivarius H-257 (Table II, fluoride salts, S. salivarius H-257, means of triplicate experiments) it was 400 µM; in the series on S. mutans 6715 (Table II, fluoride salts, S. mutans 6715, means of triplicate experiments), 1200 µM; in the series with S. mutans OMZ-176 (Table II, fluoride salts, S. mutans OMZ-176, means of triplicate experiments) it was 1430 µM. The IC50 with S. sanguis 10556 (Table II, fluoride salts, S. sanguis 10556, means of triplicate experiments) was 220 µM. The “inhibition of bacterial growth” value with cariogenic bacteria is given as “less active than the stannous form SnF2”. Also, in the series “pH of solution”, the “pH values in solution” value was approximately 3.8.
As for `[Cl][Sn][Cl]` [SnCl2], the IC50 in the series with L. casei was 3000 to 6000 µM; in the series with S. sanguis 10557, 1880 µM; in the series with S. salivarius SS4, 1450 µM; with S. salivarius H-257, 3640 µM; in the series on S. mutans 6715, 2260 µM; in the series on S. mutans OMZ-176, 3680 µM. Also, in the series on S. sanguis 10556, the IC50 turned out to be 1270 µM.
On to `O=S(=O)([O-])[O-].[Zn+2]` [ZnSO4], for which the IC50 in the series on L. casei was determined as 10400 µM; in the series with S. sanguis 10557 it was 400 µM; in the series with S. salivarius SS4, 6000 µM; in the series with S. salivarius H-257 it was 750 µM; in the series on S. mutans 6715 it was 5740 µM; in the series with S. mutans OMZ-176, 7500 µM. Further, in the series with S. sanguis 10556, the IC50 was determined as 360 µM. Also, the “antiplaque activity” value in the series with artificial plaque (6.0-30.0 mM/L zinc) is “no difference in activity between ZnSO4 and ZnNH4 F3”. Moreover, the “Percentage Inhibition of Growth of Artificial Plaque” value stood at 47 ± 14% in the series on artificial plaque (zinc conc. 6.0 mM/L), 51 ± 14% in the series on artificial plaque (zinc conc. 15.0 mM/L) and 64 ± 14% with artificial plaque (zinc conc. 30.0 mM/L).
For the molecule Al2 (SO4)3, the IC50 in the series on L. casei was 6450 µM; in the series with S. sanguis 10557, 8450 µM; with S. salivarius SS4 it was 7800 µM; in the series on S. salivarius H-257 it was 5400 µM; with S. mutans 6715, 3560 µM; in the series on S. mutans OMZ-176, 5910 µM. Moreover, in the series with S. sanguis 10556, the IC50 was 5550 µM.
As for SnF2, the “% Reduction in Dissolution” value turned out to be 57% (pH 4), 54% (pH 5), 45% (pH 6) and 43% (pH 7). For the same molecule, the “ID/50 (recalculated as ppm F)” value with L. casei is 113; in the series on S. sanguis 10557, 32; in the series with S. salivarius SS4 it was 93; in the series with S. salivarius H-257, 29; in the series on S. mutans 6715, 56; in the series with S. mutans OMZ-176, 87. For the same molecule, the “ID/50 (recalculated as ppm F)” value with S. sanguis 10556 is 17. The IC50 in the series with L. casei was 2970 µM; in the series with S. sanguis 10557 it was 840 µM; with S. salivarius SS4 it was 2450 µM; with S. salivarius H-257, 740 µM; with S. mutans 6715, 1500 µM; in the series with S. mutans OMZ-176 it was 2280 µM. Also, the IC50 in the series on S. sanguis 10556 was determined as 440 µM.
